Assays:
Rattus norvegicus [1] = species on record: Rattus norvegicus; assay: Compound was tested for regulation of kidney VDR in rats; type: functional
Rattus norvegicus [2] = species on record: Rattus norvegicus; assay: Compound was tested for its ability to stimulate bone calcium resorption in serum relative to 1,25(OH)2D3 in rats at a dose of 200 ng/rat; type: functional, organism-based
Rattus norvegicus [3] = species on record: Rattus norvegicus; assay: Compound was tested for its ability to stimulate bone calcium resorption in serum relative to 1,25(OH)2D3 in rats at a dose of 25 ng/rat; type: functional, organism-based
Rattus norvegicus [4] = species on record: Rattus norvegicus; assay: Compound was tested for its ability to stimulate intestinal calcium absorption relative to 1,25(OH)2D3 in rats at a dose of 50ng/rat, expressed as Ca (serosal) /Ca (mucosal); type: functional
Rattus norvegicus [5] = species on record: Rattus norvegicus; assay: Compound was tested for increase in plasma calcium concentration in rats; type: functional, organism-based
Rattus norvegicus [6] = species on record: Rattus norvegicus; assay: Compound was tested for its ability to stimulate bone calcium resorption in serum relative to 1,25(OH)2D3 in rats at a dose of 100 ng/rat; type: functional, organism-based
Rattus norvegicus [7] = species on record: Rattus norvegicus; assay: Compound was tested for its ability to stimulate bone calcium resorption in serum relative to 1,25(OH)2D3 in rats at a dose of 50 ng/rat; type: functional, organism-based
Rattus norvegicus [8] = species on record: Rattus norvegicus; assay: Compound was tested for its ability to stimulate intestinal calcium absorption relative to 1,25(OH)2D3 in rats at a dose of 25ng/rat, expressed as Ca (serosal) /Ca (mucosal); type: functional
Rattus norvegicus [9] = species on record: Rattus norvegicus; assay: Compound was tested for its ability to stimulate intestinal calcium absorption relative to 1,25(OH)2D3 in rats at a dose of 100ng/rat, expressed as Ca (serosal) /Ca (mucosal); type: functional
Rattus norvegicus [10] = species on record: Rattus norvegicus; assay: Compound was tested for its ability to stimulate intestinal calcium absorption relative to 1,25(OH)2D3 in rats at a dose of 200ng/rat, expressed as Ca (serosal) /Ca (mucosal); type: functional
Rattus norvegicus [11] = species on record: Rattus norvegicus; assay: Compound was tested for its ability to stimulate bone calcium resorption in rats at a dose of 12.5 ng/rat; type: functional, organism-based

Structure (SMILES) | Kidney VDR (Rattus norvegicus [1]) | Serum Ca2+ (Rattus norvegicus [2]) [mg/dL] | Serum Ca2+ (Rattus norvegicus [3]) [mg/dL] | Ratio (Rattus norvegicus [4]) | Plasma Ca2+ (Rattus norvegicus [5]) [mg/dL] | Serum Ca2+ (Rattus norvegicus [6]) [mg/dL] | Serum Ca2+ (Rattus norvegicus [7]) [mg/dL] | Ratio (Rattus norvegicus [8]) | Ratio (Rattus norvegicus [9]) | Ratio (Rattus norvegicus [10]) | Serum Ca2+ (Rattus norvegicus [11]) [mg/dL]
C=C1/C(=C\C=C2/CCC[C@]3(C)[C@@H]([C@H](C)/C=C/[C@H](CO)C(C)(C)O)CC[C@@H]23)C[C@@H](O)C[C@@H]1O | 249 fM (mg of protein)-1 | 4 | 4.1 | 2.08 | 10.5 | 3.8 | 4.2 | 2.17 | 2.22 | 3.21 | 
C=C1/C(=C\C=C2/CCC[C@]3(C)[C@@H]([C@H](C)CCCC(C)(C)O)CC[C@@H]23)C[C@@H](O)C[C@@H]1O |  |  |  |  | 10.6 |  |  |  |  |  | 4.6

— ChEMBL document CHEMBL1126966, “1,25,28-trihydroxyvitamin D2 up-regulates renal vitamin D receptor without causing hypercalcemia” (1993)
